Data: PubChem BioAssay AID2060627 (Molecular Pharmacology Branch, DTP, NCI, 2025)
pIC50: −log10 of the molar value.

Tested on: 156681-154-R-J1-PDC complex spheroid viability
Test: Anticancer human tumor 156681-154-R-J1-PDC patient-derived melanoma cell line growth inhibition [CLK]
Settings: for pIC50: curve of first compound; for viability, T/C: stronger effect = lower value
In short: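 Patient-derived tumor cells grown as complex spheroids with HUVEC endothelial cells and mesenchymal stem cells, treated with drug combinations. Concentrations descend in half-log steps from near clinical Cmax, or from 10 microM if Cmax unknown.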

[1] = second compound 0.0316 µM, first compound 0.0316 µM
[2] = second compound 0.0316 µM, first compound 0.1 µM
[3] = second compound 0.0316 µM, first compound 0.316 µM
[4] = second compound 0.0316 µM, first compound 1 µM
[5] = second compound 0.1 µM, first compound 0.0316 µM
[6] = second compound 0.1 µM, first compound 0.1 µM
[7] = second compound 0.1 µM, first compound 0.316 µM
[8] = second compound 0.1 µM, first compound 1 µM
[9] = second compound 0.316 µM, first compound 0.0316 µM
[10] = second compound 0.316 µM, first compound 0.1 µM
[11] = second compound 0.316 µM, first compound 0.316 µM
[12] = second compound 0.316 µM, first compound 1 µM
[13] = second compound 1 µM, first compound 0.0316 µM
[14] = second compound 1 µM, first compound 0.1 µM
[15] = second compound 1 µM, first compound 0.316 µM
[16] = second compound 1 µM, first compound 1 µM
[17] = second compound 3.16 µM, first compound 0.0316 µM
[18] = second compound 3.16 µM, first compound 0.1 µM
[19] = second compound 3.16 µM, first compound 0.316 µM
[20] = second compound 3.16 µM, first compound 1 µM
[21] = second compound 10 µM, first compound 0.0316 µM
[22] = second compound 10 µM, first compound 0.1 µM
[23] = second compound 10 µM, first compound 0.316 µM
[24] = second compound 10 µM, first compound 1 µM
[25] = second compound 0.0316 µM, first compound 3.16 µM
[26] = second compound 0.0316 µM, first compound 10 µM
[27] = second compound 0.1 µM, first compound 3.16 µM
[28] = second compound 0.1 µM, first compound 10 µM
[29] = second compound 0.316 µM, first compound 3.16 µM
[30] = second compound 0.316 µM, first compound 10 µM
[31] = second compound 1 µM, first compound 3.16 µM
[32] = second compound 1 µM, first compound 10 µM
[33] = second compound 3.16 µM, first compound 3.16 µM
[34] = second compound 3.16 µM, first compound 10 µM
[35] = second compound 10 µM, first compound 3.16 µM
[36] = second compound 10 µM, first compound 10 µM
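Further: spheroids exposed to the agents for seven days.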
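Wherever viability, T/C is given: 100% = DMSO vehicle control viability.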

## COc1c(OCCCN2CCOCC2)ccc2c3n(c(=NC(=O)c4cnc(N)nc4)nc12)CCN3 + CNC(=O)c1ccc(Nc2nc(OC3CCCC3)c3c(-c4ccc5nc(C)oc5c4)c[nH]c3n2)c(OC)c1
Second compound 0.0316 µM
  pIC50: 7.76
Second compound 0.1 µM
  pIC50: 7.99
Second compound 0.316 µM
  pIC50: 8.15
Second compound 1 µM
  pIC50: 8.47
Second compound 3.16 µM
  pIC50: > 8.50
Second compound 10 µM
  pIC50: > 8.50
Second compound 0.0316 µM, first compound 0.00316 µM
  viability, T/C: 74.4%
Second compound 0.0316 µM, first compound 0.01 µM
  viability, T/C: 64.8%
[1]
  viability, T/C: 33.8%
[2]
  viability, T/C: 17.3%
[3]
  viability, T/C: 2.95%
[4]
  viability, T/C: 0.22%
Second compound 0.1 µM, first compound 0.00316 µM
  viability, T/C: 50.5%
Second compound 0.1 µM, first compound 0.01 µM
  viability, T/C: 56.1%
[5]
  viability, T/C: 33.5%
[6]
  viability, T/C: 18.5%
[7]
  viability, T/C: 2.54%
[8]
  viability, T/C: 0.32%
Second compound 0.316 µM, first compound 0.00316 µM
  viability, T/C: 61.2%
Second compound 0.316 µM, first compound 0.01 µM
  viability, T/C: 44.2%
[9]
  viability, T/C: 27.9%
[10]
  viability, T/C: 13.3%
[11]
  viability, T/C: 4.38%
[12]
  viability, T/C: 3.9%
Second compound 1 µM, first compound 0.00316 µM
  viability, T/C: 50.8%
Second compound 1 µM, first compound 0.01 µM
  viability, T/C: 37.3%
[13]
  viability, T/C: 18.8%
[14]
  viability, T/C: 6.93%
[15]
  viability, T/C: 1.63%
[16]
  viability, T/C: 0.35%
Second compound 3.16 µM, first compound 0.00316 µM
  viability, T/C: 47.6%
Second compound 3.16 µM, first compound 0.01 µM
  viability, T/C: 35.5%
[17]
  viability, T/C: 19.9%
[18]
  viability, T/C: 6.45%
[19]
  viability, T/C: 1.23%
[20]
  viability, T/C: 0.32%
Second compound 10 µM, first compound 0.00316 µM
  viability, T/C: 49.1%
Second compound 10 µM, first compound 0.01 µM
  viability, T/C: 30.9%
[21]
  viability, T/C: 10.6%
[22]
  viability, T/C: 5.7%
[23]
  viability, T/C: 1.04%
[24]
  viability, T/C: 0.31%

## COc1cccc2c1C(=O)c1c(O)c3c(c(O)c1C2=O)CC(O)(C(=O)CO)CC3OC1CC(N)C(O)C(C)O1 (stereo unspecified) + CN1CCN(c2cc(C(=O)Nc3cc4cc(-c5cnn(C)c5)ccc4cn3)ccn2)CC1
Second compound 0.0316 µM
  pIC50: > 7.50
Second compound 0.1 µM
  pIC50: > 7.50
Second compound 0.316 µM
  pIC50: > 7.50
Second compound 1 µM
  pIC50: > 7.50
Second compound 3.16 µM
  pIC50: > 7.50
Second compound 10 µM
  pIC50: > 7.50
[1]
  viability, T/C: 43.4%
[2]
  viability, T/C: 48.3%
[3]
  viability, T/C: 4.36%
[4]
  viability, T/C: 0.18%
[25]
  viability, T/C: 0.09%
[26]
  viability, T/C: 3.75%
[5]
  viability, T/C: 30.6%
[6]
  viability, T/C: 22.5%
[7]
  viability, T/C: 3.39%
[8]
  viability, T/C: 0.14%
[27]
  viability, T/C: 0.09%
[28]
  viability, T/C: 0.26%
[9]
  viability, T/C: 11.2%
[10]
  viability, T/C: 5.67%
[11]
  viability, T/C: 0.29%
[12]
  viability, T/C: 0.1%
[29]
  viability, T/C: 0.2%
[30]
  viability, T/C: 1.51%
[13]
  viability, T/C: 0.37%
[14]
  viability, T/C: 0.13%
[15]
  viability, T/C: 0.57%
[16]
  viability, T/C: 2.6%
[31]
  viability, T/C: 0.76%
[32]
  viability, T/C: 0.18%
[17]
  viability, T/C: 0.05%
[18]
  viability, T/C: 0.07%
[19]
  viability, T/C: 0.08%
[20]
  viability, T/C: 1.69%
[33]
  viability, T/C: 1.88%
[34]
  viability, T/C: 0.27%
[21]
  viability, T/C: 0.05%
[22]
  viability, T/C: 1.66%
[23]
  viability, T/C: 2.85%
[24]
  viability, T/C: 0.12%
[35]
  viability, T/C: 1.59%
[36]
  viability, T/C: 0.51%

## Nc1ccccc1NC(=O)c1ccc(CNC(=O)OCc2cccnc2)cc1 + CN1CCN(c2cc(C(=O)Nc3cc4cc(-c5cnn(C)c5)ccc4cn3)ccn2)CC1
Second compound 0.0316 µM
  pIC50: 6.25
Second compound 0.1 µM
  pIC50: 6.30
Second compound 0.316 µM
  pIC50: > 7.50
Second compound 1 µM
  pIC50: > 7.50
Second compound 3.16 µM
  pIC50: > 7.50
Second compound 10 µM
  pIC50: > 7.50
[1]
  viability, T/C: 104%
[2]
  viability, T/C: 86.9%
[3]
  viability, T/C: 69.7%
[4]
  viability, T/C: 33.3%
[25]
  viability, T/C: 5.05%
[26]
  viability, T/C: 0.29%
[5]
  viability, T/C: 95.2%
[6]
  viability, T/C: 89.5%
[7]
  viability, T/C: 65.2%
[8]
  viability, T/C: 27.4%
[27]
  viability, T/C: 7.52%
[28]
  viability, T/C: 1.57%
[9]
  viability, T/C: 23.7%
[10]
  viability, T/C: 20.4%
[11]
  viability, T/C: 19.8%
[12]
  viability, T/C: 14.6%
[29]
  viability, T/C: 1.03%
[30]
  viability, T/C: 0.71%
[13]
  viability, T/C: 0.22%
[14]
  viability, T/C: 1.38%
[15]
  viability, T/C: 0.48%
[16]
  viability, T/C: 0.97%
[31]
  viability, T/C: 2.99%
[32]
  viability, T/C: 1.95%
[17]
  viability, T/C: 0.06%
[18]
  viability, T/C: 0.81%
[19]
  viability, T/C: 0.11%
[20]
  viability, T/C: 0.92%
[33]
  viability, T/C: 1.15%
[34]
  viability, T/C: 1.84%
[21]
  viability, T/C: 0.03%
[22]
  viability, T/C: 0.96%
[23]
  viability, T/C: 0.58%
[24]
  viability, T/C: 0.15%
[35]
  viability, T/C: 3.86%
[36]
  viability, T/C: 2.47%
